In patent publication US9416133B2, “Hydropyrrolopyrrole derivatives for use as fatty acid synthase inhibitors” (MERCK PATENT GMBH, priority 2012, dated 2016):

Molecular target: T1, human recombinant full-length fatty acid synthase (FASN) (Homo sapiens, UniProt P49327)
T1 construct: 40 nM human recombinant full-length fatty acid synthase (produced in-house in SF9 cells); made in house; host or cells: SF9 cells
Experiment: Biochemical activity testing of human fatty acid synthase FASN (NADPH fluorescence intensity enzyme assay)
Settings: inhibition of NADPH conversion
From the text: Biochemical Activity Testing of Human Fatty Acid Synthase FASN
Fatty acid synthase FASN is a multifunctional enzyme with seven catalytic activities thereby synthesising long chain fatty acids especially palmitoyl-CoA in the presence of co-factor NADPH starting from the substrates acetyl-CoA and malonyl-CoA. The reductive synthesis is realized by the oxidation of NADPH to NADP. Since NADPH has a high fluorescence intensity quantum yield compared to NADP with excitation at 340 nm and emission at 460 nm, the reaction can be monitored via the decrease in fluorescence intensity. The biochemical FASN activity testing was performed as 384 well two-time-point kinetic fluorescence intensity assay format in Greiner low volume medium binding 384-well black microtiter plates in a total assay volume of 8 μl and was used for high throughput screen. In each well 3 μl 40 nM human recombinant full-length fatty acid synthase (produced in-house in SF9 cells) were dispensed in the following assay buffer: 50 mM potassium phosphate buffer pH 7.0, 0.005% (w/v) BSA, 2 mM Glutathione, 0.02% Tween-20. Then 2 μl of 200 μM NADPH in assay buffer were added, followed by the addition of the test compounds in 10 dilution concentrations starting with 30 μM (final concentration) to get a final DMSO content of 1% (v/v). The mixture was incubated for at least 15 min at room temperature. After the pre-incubation the enzymatic reaction was started by the addition of 2 μl substrate solution (80 μM acetyl-CoA, 240 μM malonyl-CoA). A first fluorescence intensity measurement (time point one) was performed with an Envision multimode reader (Perkin Elmer LAS Germany GmbH) at excitation wavelength 340 nm (lamp mode) and emission wavelength 460 nm. The reaction was incubated for 30 minutes at room temperature. After this the fluorescence intensity was measured again in the Envision using the same parameters as described above (second time point measurement). The data were analysed by subtracting the first time point measurement value from the second time point measurement value (after the enzymatic reaction). The differences of the emission signals were determined. These reflect directly the conversion rate of NADPH. The full value used was the inhibitor-free reaction. A pharmacological zero value was used like GSK837149A (Sigma-Aldrich) in a final concentration of 5-10 μM. The inhibitory values (IC50) were determined using either the program Symyx Assay Explorer® or Condosseo® from GeneData.

T1 sequence (P49327 whole entry): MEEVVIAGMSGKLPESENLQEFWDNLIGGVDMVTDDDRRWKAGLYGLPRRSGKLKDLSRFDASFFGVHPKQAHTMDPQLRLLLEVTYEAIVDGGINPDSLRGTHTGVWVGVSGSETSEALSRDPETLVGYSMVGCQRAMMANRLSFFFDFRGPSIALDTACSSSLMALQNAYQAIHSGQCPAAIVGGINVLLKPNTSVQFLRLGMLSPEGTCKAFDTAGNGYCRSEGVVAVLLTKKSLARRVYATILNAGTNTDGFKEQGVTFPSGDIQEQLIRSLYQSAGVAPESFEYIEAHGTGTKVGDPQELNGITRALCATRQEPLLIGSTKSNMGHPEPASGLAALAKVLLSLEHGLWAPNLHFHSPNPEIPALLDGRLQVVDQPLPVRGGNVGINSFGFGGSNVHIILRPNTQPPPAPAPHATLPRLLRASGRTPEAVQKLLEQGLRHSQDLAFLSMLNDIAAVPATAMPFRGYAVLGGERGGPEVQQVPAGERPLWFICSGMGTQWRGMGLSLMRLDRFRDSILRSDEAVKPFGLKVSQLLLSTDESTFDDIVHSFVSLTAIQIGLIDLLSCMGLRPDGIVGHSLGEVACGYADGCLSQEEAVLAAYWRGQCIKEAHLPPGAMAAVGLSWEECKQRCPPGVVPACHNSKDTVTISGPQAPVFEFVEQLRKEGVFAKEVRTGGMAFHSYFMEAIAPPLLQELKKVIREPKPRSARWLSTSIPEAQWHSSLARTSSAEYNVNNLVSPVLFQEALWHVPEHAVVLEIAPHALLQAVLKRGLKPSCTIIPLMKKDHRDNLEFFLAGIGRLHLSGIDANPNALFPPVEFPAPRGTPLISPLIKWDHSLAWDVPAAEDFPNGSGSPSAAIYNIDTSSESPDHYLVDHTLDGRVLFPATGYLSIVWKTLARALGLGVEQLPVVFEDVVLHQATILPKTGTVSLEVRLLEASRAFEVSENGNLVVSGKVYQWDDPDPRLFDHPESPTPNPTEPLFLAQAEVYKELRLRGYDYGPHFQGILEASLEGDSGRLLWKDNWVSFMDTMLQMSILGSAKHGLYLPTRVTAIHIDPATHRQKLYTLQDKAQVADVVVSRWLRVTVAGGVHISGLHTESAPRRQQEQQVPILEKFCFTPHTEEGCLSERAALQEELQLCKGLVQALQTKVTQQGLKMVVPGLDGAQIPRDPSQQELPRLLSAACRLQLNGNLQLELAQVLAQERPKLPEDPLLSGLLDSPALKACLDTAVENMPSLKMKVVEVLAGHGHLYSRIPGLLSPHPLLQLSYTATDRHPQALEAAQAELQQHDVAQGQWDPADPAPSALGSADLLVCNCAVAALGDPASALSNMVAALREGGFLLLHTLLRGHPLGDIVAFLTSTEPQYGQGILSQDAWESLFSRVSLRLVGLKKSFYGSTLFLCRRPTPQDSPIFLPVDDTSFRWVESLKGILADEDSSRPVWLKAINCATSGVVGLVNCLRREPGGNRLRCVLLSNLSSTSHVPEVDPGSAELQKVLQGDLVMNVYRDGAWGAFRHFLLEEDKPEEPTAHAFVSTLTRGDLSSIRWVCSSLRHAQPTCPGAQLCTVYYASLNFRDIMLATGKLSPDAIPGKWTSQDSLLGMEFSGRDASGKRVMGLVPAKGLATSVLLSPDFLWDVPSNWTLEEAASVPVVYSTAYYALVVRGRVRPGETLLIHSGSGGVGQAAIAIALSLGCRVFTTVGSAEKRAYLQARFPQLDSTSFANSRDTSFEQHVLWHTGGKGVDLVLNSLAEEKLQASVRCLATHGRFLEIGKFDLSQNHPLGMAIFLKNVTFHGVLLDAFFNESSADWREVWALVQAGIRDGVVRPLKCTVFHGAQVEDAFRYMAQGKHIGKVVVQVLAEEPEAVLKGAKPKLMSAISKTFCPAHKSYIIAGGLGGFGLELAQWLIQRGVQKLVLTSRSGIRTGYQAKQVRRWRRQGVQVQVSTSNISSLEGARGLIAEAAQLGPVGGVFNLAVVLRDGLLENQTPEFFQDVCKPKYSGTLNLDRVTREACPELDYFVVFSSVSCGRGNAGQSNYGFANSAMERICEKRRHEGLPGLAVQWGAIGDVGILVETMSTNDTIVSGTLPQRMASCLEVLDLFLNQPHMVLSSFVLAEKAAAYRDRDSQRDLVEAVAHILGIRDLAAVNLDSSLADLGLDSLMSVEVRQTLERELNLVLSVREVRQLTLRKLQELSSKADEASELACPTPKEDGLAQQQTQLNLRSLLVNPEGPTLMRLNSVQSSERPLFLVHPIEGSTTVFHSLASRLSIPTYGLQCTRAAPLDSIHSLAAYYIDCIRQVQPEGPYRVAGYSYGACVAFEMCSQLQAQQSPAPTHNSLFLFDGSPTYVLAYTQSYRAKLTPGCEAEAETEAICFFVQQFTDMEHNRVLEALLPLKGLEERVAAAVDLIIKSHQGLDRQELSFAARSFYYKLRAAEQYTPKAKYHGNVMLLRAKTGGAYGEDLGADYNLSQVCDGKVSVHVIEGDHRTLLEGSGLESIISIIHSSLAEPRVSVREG

| SMILES | IC50 |
| --- | --- |
| CCC(=O)N1CC2CN(C(=O)c3ccc(-c4ccc5cnccc5c4)cc3)CC2C1 (centres unmarked) [Compound A1, 1-[5-(4-isoquinolin-6-yl-benzoyl)-hexahydro-pyrrolo[3,4-c]pyrrol-2-yl]-propan-1-one] | < 0.3 µM |
| CCC(=O)N1CC2CN(C(=O)c3ccc(-c4ccc5ccoc5c4)cc3)CC2C1 (centres unmarked) [Compound A2, 1-[5-(4-benzofuran-6-yl-benzoyl)-hexahydro-pyrrolo[3,4-c]pyrrol-2-yl]-propan-1-one] | 0.3 to 3 µM |
| CC(=O)N1CC2CN(C(=O)c3ccc(-c4ccc5cnccc5c4)cc3)CC2C1 (centres unmarked) [Compound A3, 1-[5-(4-isoquinolin-6-yl-benzoyl)-hexahydro-pyrrolo[3,4-c]pyrrol-2-yl]-ethanone] | 0.3 to 3 µM |
| CCC(=O)N1CC2CN(C(=O)c3ccc(-c4ccc5cc[nH]c5c4)cc3)CC2C1 (centres unmarked) [Compound A4, 1-{5-[4-(1H-indol-6-yl)-benzoyl]-hexahydro-pyrrolo[3,4-c]pyrrol-2-yl}-propan-1-one] | 0.3 to 3 µM |
| O=C(c1ccc(-c2ccc3cc[nH]c3c2)cc1)N1CC2CN(C(=O)C3CC3)CC2C1 (centres unmarked) [Compound A5, (5-cyclopropanecarbonyl-hexahydro-pyrrolo[3,4-c]pyrrol-2-yl)-[4-(1H-indol-6-yl)-phenyl]-methanone] | 0.3 to 3 µM |
| CC(=O)N1CC2CN(C(=O)c3ccc(-c4ccc5ccoc5c4)cc3)CC2C1 (centres unmarked) [Compound A6, 1-[5-(4-benzofuran-6-yl-benzoyl)-hexahydro-pyrrolo[3,4-c]pyrrol-2-yl]-ethanone] | 3 to 50 µM |
| CC(=O)N1CC2CN(C(=O)c3ccc(-c4ccc5cc[nH]c5c4)cc3)CC2C1 (centres unmarked) [Compound A7, 1-{5-[4-(1H-indol-6-yl)-benzoyl]-hexahydro-pyrrolo[3,4-c]pyrrol-2-yl}-ethanone] | 0.3 to 3 µM |
| O=C(c1ccc(-c2ccc3cnccc3c2)cc1)N1CC2CN(C(=O)C3CC3)CC2C1 (centres unmarked) [Compound A8, (5-cyclopropanecarbonyl-hexahydro-pyrrolo[3,4-c]pyrrol-2-yl)-(4-isoquinolin-6-yl-phenyl)-methanone] | 0.3 to 3 µM |
